From patent publication US20170362228A1, “TETRAHYDRO-PYRIDO[3,4-b]INDOLE ESTROGEN RECEPTOR MODULATORS AND USES THEREOF” (Genentech, Inc., priority 2016, published 2017)

Key:
immature rat uterus = experiment: Immature Uterine Wet Weight Assay, agonist mode (Example 906); assay type: in vivo; conditions: dosed PO, QD×3
Experimental: Female immature CD-IGS rats (21 days old upon arrival) are treated for three days. Animals are dosed daily for three days. For Antagonist Mode, Vehicle or test compound is administered orally by gavage followed 15 minutes later by an oral dose of 0.1 mg/kg Ethynyl Estradiol. For Agonist Mode, Vehicle or test compound is administered orally by gavage. On the fourth day 24 hours after dose, plasma is collected for pharmacokinetic analysis. Immediately following plasma collection, the animals are euthanized and the uterus removed and weighed.
Uteri and ovaries from 2 animals per group are fixed in 10% neutral buffered formalin and paraffin embedded, sectioned and stained for H&E (SDPath). Stained tissues are analyzed and read by a board certified pathologist. […]
Mice were treated with Formula I compounds (1R,3R)-1-(2,6-difluoro-4-((1-(3-fluoropropyl)azetidin-3-yl)oxy)phenyl)-2-(2-fluoro-2-methylpropyl)-3-methyl-2,3,4,9-tetrahydro-1H-pyrido[3,4-b]indole 101 and (1R,3R)-1-(2,6-difluoro-4-(2-(3-(fluoromethyl)azetidin-1-yl)ethoxy)phenyl)-2-(2-fluoro-2-methylpropyl)-3-methyl-2,3,4,9-tetrahydro-1H-pyrido[3,4-b]indole 102, tamoxifen, fulvestrant, AZD9496 (WO 2014/191726, Example 1, page 74; U.S. Pat. No. 9,155,727), and two controls: Vehicle and Vehicle plus ethynyl estradiol (EE). […] Uterine Wet Weight (UWW): Body Weight ratios were calculated. […]

MCF7 cells = experiment: In vitro cell proliferation assays (Examples 902 and 903), MCF7; assay type: cell-based; conditions: Homo sapiens, MCF7, Table 1b, read-out: ER-alpha MCF7 HCS (EC50)
[1] = biological target: T1, estrogen receptor alpha (ESR1) (Homo sapiens, UniProt P03372); experiment: Breast Cancer Cell ERa High Content Fluorescence Imaging Degradation Assay (Example 901); assay type: cell-based; conditions: Table 1b; MCF7 breast cancer cells, 4 hours; plateau of the maximal effect
T1 construct: endogenous in cells; host or cells: MCF7 breast cancer cells
T1 sequence (P03372 1-595): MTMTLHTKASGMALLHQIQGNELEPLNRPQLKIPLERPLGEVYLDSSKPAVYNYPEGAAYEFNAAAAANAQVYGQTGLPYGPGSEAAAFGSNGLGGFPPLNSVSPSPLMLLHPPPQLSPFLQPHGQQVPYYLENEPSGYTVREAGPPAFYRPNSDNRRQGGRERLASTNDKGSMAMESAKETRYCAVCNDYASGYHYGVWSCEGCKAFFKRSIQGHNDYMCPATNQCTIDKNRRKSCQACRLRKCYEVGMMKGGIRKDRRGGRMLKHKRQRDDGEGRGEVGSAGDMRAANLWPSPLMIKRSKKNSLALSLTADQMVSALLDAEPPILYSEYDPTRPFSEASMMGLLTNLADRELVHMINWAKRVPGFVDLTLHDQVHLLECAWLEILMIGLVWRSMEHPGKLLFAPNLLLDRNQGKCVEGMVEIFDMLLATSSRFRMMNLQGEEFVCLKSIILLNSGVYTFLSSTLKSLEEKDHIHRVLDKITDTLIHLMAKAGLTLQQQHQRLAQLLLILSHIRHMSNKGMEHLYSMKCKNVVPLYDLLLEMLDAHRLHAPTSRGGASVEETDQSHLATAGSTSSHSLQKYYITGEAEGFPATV
Outline: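 MCF7 cells in phenol red-free RPMI with 10% charcoal-stripped FBS, exposed to compound at 0.05–835 nM (10-point, 1.8×, duplicate; 0.84% DMSO) for 4 h at 37 °C. Fixed cells immunostained for ESR1 (F10 mAb, Alexa 488) with Hoechst nuclear mask; nuclear ESR1 intensity imaged per cell. DMSO and 5 nM fulvestrant set 0%/100%; EC50 and Sinf by robust fit.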

SMILES	activity in agonist mode UWW assay (immature rat uterus)	EC50 (MCF7 cells)	ER-alpha MCF7 HCS (S inf) [1]
C[C@@H]1Cc2c([nH]c3ccccc23)[C@@H](c2c(F)cc(/C=C/C(=O)O)cc2F)N1CC(C)(C)F [AZD9496]	partial agonist	–	–
CO[C@@H](c1cc(F)c([C@@H]2c3[nH]c4ccccc4c3C[C@@H](C)N2CC(F)(F)CO)c(F)c1)C1CN(CCCF)C1 [Compound 169, 3-((1R,3R)-1-(2,6-Difluoro-4-((R)-(1-(3-fluoropropyl)azetidin-3-yl)(methoxy)methyl)phenyl)-3-methyl-3,4-dihydro-1H-pyrido[3,4-b]indol-2(9H)-yl)-2,2-difluoropropan-1-ol]	–	0.108 nM	−89%
CO[C@H](c1cc(F)c([C@@H]2c3[nH]c4ccccc4c3C[C@@H](C)N2CC(F)(F)CO)c(F)c1)C1CN(CCCF)C1 [Compound 170, 3-((1R,3R)-1-(2,6-Difluoro-4-((S)-(1-(3-fluoropropyl)azetidin-3-yl)(methoxy)methyl)phenyl)-3-methyl-3,4-dihydro-1H-pyrido[3,4-b]indol-2(9H)-yl)-2,2-difluoropropan-1-ol]	–	0.078 nM	−94%
C[C@@H]1Cc2c([nH]c3ccccc23)[C@@H](c2ccc([C@H](O)C3CN(CCCF)C3)c(F)c2)N1CC(F)(F)CO [Compound 171, 2,2-difluoro-3-((1R,3R)-1-(3-fluoro-4-((R)-(1-(3-fluoropropyl)azetidin-3-yl)(hydroxy)methyl)phenyl)-3-methyl-1,3,4,9-tetrahydro-2H-pyrido[3,4-b]indol-2-yl)propan-1-ol]	–	0.087 nM	−93%
C[C@@H]1Cc2c([nH]c3ccccc23)[C@@H](c2ccc([C@@H](O)C3CN(CCCF)C3)c(F)c2)N1CC(F)(F)CO [Compound 172, 2,2-difluoro-3-((1R,3R)-1-(3-fluoro-4-((S)-(1-(3-fluoropropyl)azetidin-3-yl)(hydroxy)methyl)phenyl)-3-methyl-1,3,4,9-tetrahydro-2H-pyrido[3,4-b]indol-2-yl)propan-1-ol]	–	0.051 nM	−101%
C[C@@H]1Cc2c([nH]c3ccccc23)[C@@H](c2ccc([C@H](O)C3CN(CCCF)C3)c(F)c2F)N1CC(F)(F)CO [Compound 173, 3-((1R,3R)-1-(2,3-difluoro-4-((R)-(1-(3-fluoropropyl)azetidin-3-yl)(hydroxy)methyl)phenyl)-3-methyl-1,3,4,9-tetrahydro-2H-pyrido[3,4-b]indol-2-yl)-2,2-difluoropropan-1-ol]	–	0.072 nM	−100%
C[C@@H]1Cc2c([nH]c3ccccc23)[C@@H](c2ccc([C@@H](O)C3CN(CCCF)C3)c(F)c2F)N1CC(F)(F)CO [Compound 174, 3-((1R,3R)-1-(2,3-difluoro-4-((S)-(1-(3-fluoropropyl)azetidin-3-yl)(hydroxy)methyl)phenyl)-3-methyl-1,3,4,9-tetrahydro-2H-pyrido[3,4-b]indol-2-yl)-2,2-difluoropropan-1-ol]	–	0.071 nM	−97%
COc1cc([C@@H]2c3[nH]c4ccccc4c3C[C@@H](C)N2CC(F)(F)CO)ccc1[C@H](O)C1CN(CCCF)C1 [Compound 175, 2,2-difluoro-3-((1R,3R)-1-(4-((R)-(1-(3-fluoropropyl)azetidin-3-yl)(hydroxy)methyl)-3-methoxyphenyl)-3-methyl-1,3,4,9-tetrahydro-2H-pyrido[3,4-b]indol-2-yl)propan-1-ol]	–	0.63 nM	−96%
COc1cc([C@@H]2c3[nH]c4ccccc4c3C[C@@H](C)N2CC(F)(F)CO)ccc1[C@@H](O)C1CN(CCCF)C1 [Compound 176, 2,2-difluoro-3-((1R,3R)-1-(4-((S)-(1-(3-fluoropropyl)azetidin-3-yl)(hydroxy)methyl)-3-methoxyphenyl)-3-methyl-1,3,4,9-tetrahydro-2H-pyrido[3,4-b]indol-2-yl)propan-1-ol]	–	5.8 nM	−81%
